Assay results reported in patent publication US4229435A, “Preparation of blood fraction” (priority 1978, dated 1980).

Target: T1, F VIII (Homo sapiens, UniProt P00451)
T1 construct: from tissue; host or cells: human citrated blood plasma
T1 sequence (P00451 20-1332 limits assumed): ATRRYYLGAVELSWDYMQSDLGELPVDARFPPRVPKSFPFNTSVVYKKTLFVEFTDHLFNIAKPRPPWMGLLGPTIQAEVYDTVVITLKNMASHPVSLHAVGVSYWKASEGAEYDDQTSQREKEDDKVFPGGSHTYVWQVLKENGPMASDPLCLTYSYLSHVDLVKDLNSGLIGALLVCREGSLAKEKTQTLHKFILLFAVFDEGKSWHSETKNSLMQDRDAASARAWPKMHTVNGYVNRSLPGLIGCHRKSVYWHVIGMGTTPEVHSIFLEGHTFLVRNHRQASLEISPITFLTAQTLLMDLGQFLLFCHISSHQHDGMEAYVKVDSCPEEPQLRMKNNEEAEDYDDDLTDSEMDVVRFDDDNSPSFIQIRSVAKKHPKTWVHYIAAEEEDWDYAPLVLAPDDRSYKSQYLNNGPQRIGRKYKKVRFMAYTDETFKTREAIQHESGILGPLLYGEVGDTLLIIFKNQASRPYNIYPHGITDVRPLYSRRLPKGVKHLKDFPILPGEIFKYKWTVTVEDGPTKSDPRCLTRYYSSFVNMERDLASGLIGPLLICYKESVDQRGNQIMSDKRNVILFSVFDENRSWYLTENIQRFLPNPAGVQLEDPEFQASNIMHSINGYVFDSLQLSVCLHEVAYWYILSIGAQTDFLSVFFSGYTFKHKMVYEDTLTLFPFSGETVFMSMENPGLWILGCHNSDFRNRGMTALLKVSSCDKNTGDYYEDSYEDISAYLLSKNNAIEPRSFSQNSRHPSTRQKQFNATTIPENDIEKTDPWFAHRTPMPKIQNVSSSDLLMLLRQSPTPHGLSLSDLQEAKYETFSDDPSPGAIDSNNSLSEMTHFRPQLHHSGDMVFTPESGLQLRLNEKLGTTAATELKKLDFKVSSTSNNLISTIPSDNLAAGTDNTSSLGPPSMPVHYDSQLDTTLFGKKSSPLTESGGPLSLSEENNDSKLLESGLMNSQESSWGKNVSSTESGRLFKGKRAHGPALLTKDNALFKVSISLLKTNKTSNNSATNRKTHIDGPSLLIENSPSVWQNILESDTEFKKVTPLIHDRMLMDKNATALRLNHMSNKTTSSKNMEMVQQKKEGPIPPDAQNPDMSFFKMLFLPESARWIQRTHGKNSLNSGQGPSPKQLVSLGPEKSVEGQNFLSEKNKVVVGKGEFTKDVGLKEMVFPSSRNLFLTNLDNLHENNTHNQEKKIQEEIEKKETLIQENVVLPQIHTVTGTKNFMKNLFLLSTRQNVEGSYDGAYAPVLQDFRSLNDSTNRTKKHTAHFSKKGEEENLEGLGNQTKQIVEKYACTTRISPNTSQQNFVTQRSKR
T1 sequence (P00451 1668-2351 limits assumed): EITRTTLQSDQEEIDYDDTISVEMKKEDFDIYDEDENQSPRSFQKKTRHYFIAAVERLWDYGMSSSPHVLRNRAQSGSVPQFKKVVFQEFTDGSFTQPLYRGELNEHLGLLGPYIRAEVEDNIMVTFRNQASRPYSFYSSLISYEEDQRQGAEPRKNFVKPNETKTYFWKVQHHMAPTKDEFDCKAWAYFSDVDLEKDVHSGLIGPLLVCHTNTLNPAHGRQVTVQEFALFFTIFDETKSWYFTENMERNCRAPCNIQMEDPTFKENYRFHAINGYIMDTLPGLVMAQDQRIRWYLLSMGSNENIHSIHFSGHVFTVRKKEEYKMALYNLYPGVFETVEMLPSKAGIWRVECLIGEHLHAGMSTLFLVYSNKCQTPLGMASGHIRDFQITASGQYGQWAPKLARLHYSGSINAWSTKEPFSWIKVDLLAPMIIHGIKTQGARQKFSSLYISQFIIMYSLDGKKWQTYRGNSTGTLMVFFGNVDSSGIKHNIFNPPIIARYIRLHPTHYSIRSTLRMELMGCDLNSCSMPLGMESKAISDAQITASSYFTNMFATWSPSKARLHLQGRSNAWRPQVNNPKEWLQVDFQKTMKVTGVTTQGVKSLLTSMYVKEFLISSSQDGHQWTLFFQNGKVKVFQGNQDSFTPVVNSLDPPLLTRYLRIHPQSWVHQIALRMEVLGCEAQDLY
Experiment: Coagulation factor VIII activity in plasma after reducing agent + iodoacetic acid
Type: biochemical
Details: 5 min 37° C., then iodoacetic acid
Experimental: Human blood with anti-coagulating agent (9 parts blood+1 part 3.8% trisodium citrate) is centrifuged and the following tests with plasma were carried out:
The plasma is divided into 8 ml portions, which are preheated at 37° C. for 5 min. DTT is added in different concentrations, see table 1 below, and is incubated for 5 min. at 37° C. Then iodoacetic acid, 3 mol per mol DTT, is added, and incubation takes place for 15 min. at 37° C. The plasma samples are distributed in portions of about 0.2 ml and are immediately frozen at -70° C. Testing of different coagulation factors is made in known manner.
(§1) The plasma is divided into 8 ml portions, which are preheated at 37° C. for 5 min. DTE is added in different concentrations (see table 2), and is incubated for 5 minutes at 37° C. Then, iodoacetic acid (3 mol per mol DTE) is added and incubation is carried out for 15 minutes at 37° C. The plasma samples are distributed in portions of about 0.2 ml and are immediately frozen at -70° C. Testing of different coagulation factors is made in a manner known per se.
as §1, with “minutes. Lipoic acid” for “min. DTE”, “3),” for “2),”, “lipoic acid)” for “DTE)”
as §1, with “minutes. Mercaptoethanol” for “min. DTE”, “4),” for “2),”, “mercaptoethanol)” for “DTE)”
as §1, with “minutes. Potassium borohydride” for “min. DTE”, “5,” for “2),”, “potassium borohydride)” for “DTE)”

[1] = human, 0.1 mg reducing agent/ml plasma (sample C)

| SMILES | activity at 100 µg/mL [1] [%] | Coagulation factor F VIII (plasma + 0.2 mg reducing agent) | Coagulation factor F VIII (plasma + 0.4 mg reducing agent) | activity at 600 µg/mL (human, 0.6 mg reducing agent/ml plasma) [%] | activity at 100 µg/mL (human, Table 1 sample D, 0.1 mg DTT/ml plasma) [%] | Coagulation factor F VIII (plasma + 0.14 mg reducing agent) | Coagulation factor F VIII (plasma + 0.28 mg reducing agent) |
| --- | --- | --- | --- | --- | --- | --- | --- |
| O[C@H](CS)[C@@H](O)CS [DTE, dithioerythritol] | 108 | 116 % of control | 93 % of control | – | – | – | – |
| O[C@H](CS)[C@H](O)CS [DTT, dithiothreitol] | 107 | – | 52 % of control | 27 | 86 | – | – |
| [BH4-].[K+] [KBH4, potassium borohydride] | – | – | – | – | – | 122 % of control | 105 % of control |
| O=C(O)CCCCC1CCSS1 (centres unmarked) [lipoic acid] | 111 | 98 % of control | 111 % of control | – | – | – | – |
| OCCS [mercaptoethanol] | – | 98 % of control | 85 % of control | – | – | – | – |
